Experimental data reported in PubChem BioAssay (NCI).
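In this assay, cells in 96-well plates receive the compound at five concentrations for 48 hours. Endpoints are linearly interpolated between the surrounding concentrations. GI50 is the concentration that inhibits growth by half. TGI is the concentration that stops growth completely.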 *1 amine or outer side, *2 acyl side, *3 side chain or, on linkers, in order; H or OH if unused. Where a SMILES comes first, the peptide text is derived from it. [ ]: non-standard residue; d: D form. ξ: configuration not given here. X21 = CC[C@@H](C)C(N[*:1])C(=O)[*:2]; ξR = N=C(N)NCCCC(N)C(=O)O; ξI = CCC(C)C(N)C(=O)O; ξL = CC(C)CC(N)C(=O)O; ξK = NCCCCC(N)C(=O)O; ξV = CC(C)C(N)C(=O)O; ξA = CC(N)C(=O)O

Tests used:
Test in all cases: NCI tumour cell line growth inhibition, 48 h
CAKI-1 renal = test system: CAKI-1 renal
HCT-116 colon = test system: HCT-116 colon
MOLT-4 leukemia = test system: MOLT-4 leukemia
SW-620 colon = test system: SW-620 colon
DU-145 prostate = test system: DU-145 prostate
NCI-H522 lung = test system: NCI-H522 lung
786-0 renal = test system: 786-0 renal
SK-MEL-2 melanoma = test system: SK-MEL-2 melanoma
SK-MEL-28 melanoma = test system: SK-MEL-28 melanoma
A549 NSCLC = test system: A549 NSCLC

Structure (SMILES)	GI50 (CAKI-1 renal) [µM]	TGI (CAKI-1 renal) [µM]	GI50 (HCT-116 colon) [µM]	TGI (HCT-116 colon) [µM]	GI50 (MOLT-4 leukemia) [µM]	TGI (MOLT-4 leukemia) [µM]	GI50 (SW-620 colon) [µM]	TGI (SW-620 colon) [µM]	GI50 (DU-145 prostate) [µM]	TGI (DU-145 prostate) [µM]	GI50 (NCI-H522 lung) [µM]	TGI (NCI-H522 lung) [µM]	GI50 (786-0 renal) [µM]	TGI (786-0 renal) [µM]	GI50 (SK-MEL-2 melanoma) [µM]	TGI (SK-MEL-2 melanoma) [µM]	GI50 (SK-MEL-28 melanoma) [µM]	TGI (SK-MEL-28 melanoma) [µM]	GI50 (A549 NSCLC) [µM]	TGI (A549 NSCLC) [µM]
O=C1NN(c2ccccc2)C(=O)/C1=C/c1ccc(Br)o1	5.8	20.8	11.4	25.8	6.06	24.6	4.85	24.5	1.45	11.2	7.92	36.8	19.8	53.2	15.8	44.7	7.03	29.8	12	44.4
COc1ccc(OC)c2c(=S)c3ccccc3[nH]c12	–	> 100	–	> 100	–	98.4	–	> 100	–	> 100	–	> 100	–	> 100	–	> 100	–	> 100	–	> 100
COc1cc2c(cc1OCCCCOc1ccc(-c3nc4ccccc4s3)cc1)N=C[C@@H]1CCCN1C2=O	0.769	10.8	0.511	1.62	0.924	3.86	0.426	1.77	0.426	2.05	0.565	1.93	0.58	1.16	0.393	1.83	2.18	4.95	2.8	8.15
COc1ccc2c(c1)/C(=N/OC(C)=O)c1c-2c(=O)[nH]c2ccccc12	11.5	25.6	3.35	12.4	4.28	24.6	14.2	30.3	10.6	25.3	13.5	31.4	15.9	43.6	13.6	29	12.7	26.6	15.8	31.3
COC1=C(Br)C(=O)C2=C(C1=O)C1C3=C(C(=O)C=CC3=O)C2c2ccccc21 (centres undefined)	15.6	38.4	5.91	> 100	4.99	> 100	4.56	> 100	21.4	53.8	3.26	14.4	14.9	36.1	20.6	61.2	30.7	> 100	42.1	> 100
CN1CCN(c2ccc(C(=O)Nc3cc(-c4cccc(NS(=O)(=O)c5ccccc5)c4)[nH]n3)cc2)CC1	17.4	51.8	4.68	17.4	3	12.5	5.86	27.2	8.52	21.2	3.29	13.2	4.8	24.2	6.85	20.2	11.4	27	7.85	25.4
COc1ccc(-c2cc(=O)c3c(OC)c(OC)c(OC)c(OC)c3o2)c(OC)c1	–	81.9	–	49.5	–	86.1	–	> 100	–	> 100	–	29.1	–	> 100	–	39.2	–	> 100	–	> 100
Nc1ncnc2c1cnn2Cc1ccc(Cl)cc1	31.8	> 100	–	> 100	–	> 100	–	> 100	–	> 100	–	> 100	> 100	> 100	> 100	> 100	74.8	> 100	–	> 100
Cn1c(=O)c(Oc2ccccc2)cc2cnc(NC3CCOCC3)nc21	> 25	> 25	> 25	> 25	> 25	> 25	> 25	> 25	> 25	> 25	> 25	> 25	> 25	> 25	> 25	> 25	> 25	> 25	> 25	> 25
NC1CCC(N[C@@H]2C[C@H]2c2ccccc2)CC1 (some centres undefined)	32	> 100	> 100	> 100	60	> 100	> 100	> 100	> 100	> 100	> 100	> 100	> 100	> 100	> 100	> 100	> 100	> 100	> 100	> 100
C/C(=N\N=C(N)N)C(CN(C)C)C(c1ccccc1)c1c(O)c2ccccc2oc1=O (centres undefined)	–	> 100	–	> 100	–	> 100	–	> 100	–	> 100	–	> 100	–	> 100	–	> 100	–	> 100	–	> 100
O=C(Nc1cccc(-n2cc(-c3ccncc3)c(-c3ccc(O)c(Cl)c3)n2)c1)Nc1cccc(C(F)(F)F)c1	1.87	5.84	2.05	5.87	1.68	4.94	2.66	8.21	3.01	11.8	1.55	4.31	2.15	9.2	2.35	4.75	1.95	6.18	1.93	8.09
N#C/C(=C\c1ccc(Br)cc1)n1nnc2ccccc21	0.345	2	0.518	1.93	1.48	11.4	0.318	1.57	1.23	3.31	0.191	1.25	0.501	1.79	0.71	3.42	0.94	3.54	0.808	15
CCC(C)C1NC(=O)C(CC(C)C)NC(=O)C(C)NC(=O)C(C(C)C)NC(=O)C(CCCCN)NC(=O)C(CC(C)C)NC(=O)C(C(C)C)NC(=O)[C@H](C)NC(=O)C(C(C)CC)NC(=O)C(CCCN=C(N)N)NC(=O)C(CCCCN)NC(=O)C(CCCN=C(N)N)NC(=O)C(CCCCN)NC(=O)C([C@H](C)CC)NC(=O)C(CCCCN)NC1=O (some centres undefined) (cyclo(A[ξV][ξL][ξK][ξV][ξA][ξL][ξI][ξK][X21][ξK][ξR][ξK][ξR][ξI]))	1.38	3.04	1.35	2.84	0.752	2.82	1.56	3.39	1.81	4.75	1.45	3.88	1.62	3.17	1.72	4.09	1.82	4.34	1.48	4.41
